Key:
mTOR = mTOR (Homo sapiens, UniProt P42345); test: Lanthascreen kinase binding assay, assay G; conditions: read-out: Assay G mTOR IC50
Procedure: Lanthascreen™ Kinase Binding Assay for mTOR (G)
Binding of an inhibitor to the kinase competes for binding with the tracer, resulting in a loss of FRET.
50 nL of compound dilutions were dispensed onto white 384-well small volume polystyrene plate.

[1] = tested on: IL-8-induced neutrophil shape change in human whole blood; test: Whole blood neutrophil shape change assay (L); assay type: cell-based; conditions: Homo sapiens, Neutrophil, IL-8, human whole blood, read-out: Assay L WBSC IC50
PI 3-kinase beta [2] = target: T1, PI 3-kinase beta (Homo sapiens, UniProt P42338); test: Cellular assay I1, p-Akt (S473) in Rat-1 cells, Surefire format; assay type: cell-based; conditions: non-asterisked data: version I1 (Surefire format), Rat-1 cells; read-out: Assay I PI3Kβ IC50
PI 4-kinase beta = PI 4-kinase beta (Homo sapiens, UniProt Q9UBF8); test: Kinase Glo Luminescent Kinase Assay (Kglo), assay D; assay type: biochemical; conditions: read-out: Assay D PI4Kβ IC50
PI 4-kinase beta, sequence (Q9UBF8 whole entry): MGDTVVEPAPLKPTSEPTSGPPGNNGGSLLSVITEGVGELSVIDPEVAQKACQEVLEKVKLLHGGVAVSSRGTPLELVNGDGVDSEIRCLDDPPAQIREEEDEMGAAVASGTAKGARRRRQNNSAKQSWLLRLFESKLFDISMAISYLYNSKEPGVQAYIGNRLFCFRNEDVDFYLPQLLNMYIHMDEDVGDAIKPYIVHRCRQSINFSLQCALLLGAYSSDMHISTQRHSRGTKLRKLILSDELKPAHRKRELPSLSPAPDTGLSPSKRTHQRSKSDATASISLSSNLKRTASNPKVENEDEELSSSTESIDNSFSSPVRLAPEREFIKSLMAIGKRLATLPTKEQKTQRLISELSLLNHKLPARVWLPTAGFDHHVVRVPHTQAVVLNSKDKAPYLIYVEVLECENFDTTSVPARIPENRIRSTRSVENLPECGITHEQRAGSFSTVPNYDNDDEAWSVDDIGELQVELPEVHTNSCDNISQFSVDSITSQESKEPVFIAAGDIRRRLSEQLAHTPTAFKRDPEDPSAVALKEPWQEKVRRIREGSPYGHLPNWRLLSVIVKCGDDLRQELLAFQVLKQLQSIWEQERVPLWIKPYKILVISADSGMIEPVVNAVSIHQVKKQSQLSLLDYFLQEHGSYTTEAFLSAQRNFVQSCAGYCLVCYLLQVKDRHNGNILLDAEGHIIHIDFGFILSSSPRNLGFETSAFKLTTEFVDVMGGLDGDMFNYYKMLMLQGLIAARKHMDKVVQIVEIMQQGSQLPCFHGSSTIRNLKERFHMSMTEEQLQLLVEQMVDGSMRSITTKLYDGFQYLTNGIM

PI 3-kinase beta [3] = target: T1, PI 3-kinase beta; test: Kinase Glo Luminescent Kinase Assay (Kglo), assay B; assay type: biochemical; conditions: read-out: Assay B PI3Kβ IC50
PI 3-kinase alpha [4] = target: T2, PI 3-kinase alpha (Homo sapiens, UniProt P42336); test: Cellular assay H1, p-Akt (S473) in Rat-1 cells, Surefire format; assay type: cell-based; conditions: non-asterisked data: version H1 (Surefire format), Rat-1 cells; read-out: Assay H PI3Kα IC50
Target sequence in this assay (P42336 whole entry): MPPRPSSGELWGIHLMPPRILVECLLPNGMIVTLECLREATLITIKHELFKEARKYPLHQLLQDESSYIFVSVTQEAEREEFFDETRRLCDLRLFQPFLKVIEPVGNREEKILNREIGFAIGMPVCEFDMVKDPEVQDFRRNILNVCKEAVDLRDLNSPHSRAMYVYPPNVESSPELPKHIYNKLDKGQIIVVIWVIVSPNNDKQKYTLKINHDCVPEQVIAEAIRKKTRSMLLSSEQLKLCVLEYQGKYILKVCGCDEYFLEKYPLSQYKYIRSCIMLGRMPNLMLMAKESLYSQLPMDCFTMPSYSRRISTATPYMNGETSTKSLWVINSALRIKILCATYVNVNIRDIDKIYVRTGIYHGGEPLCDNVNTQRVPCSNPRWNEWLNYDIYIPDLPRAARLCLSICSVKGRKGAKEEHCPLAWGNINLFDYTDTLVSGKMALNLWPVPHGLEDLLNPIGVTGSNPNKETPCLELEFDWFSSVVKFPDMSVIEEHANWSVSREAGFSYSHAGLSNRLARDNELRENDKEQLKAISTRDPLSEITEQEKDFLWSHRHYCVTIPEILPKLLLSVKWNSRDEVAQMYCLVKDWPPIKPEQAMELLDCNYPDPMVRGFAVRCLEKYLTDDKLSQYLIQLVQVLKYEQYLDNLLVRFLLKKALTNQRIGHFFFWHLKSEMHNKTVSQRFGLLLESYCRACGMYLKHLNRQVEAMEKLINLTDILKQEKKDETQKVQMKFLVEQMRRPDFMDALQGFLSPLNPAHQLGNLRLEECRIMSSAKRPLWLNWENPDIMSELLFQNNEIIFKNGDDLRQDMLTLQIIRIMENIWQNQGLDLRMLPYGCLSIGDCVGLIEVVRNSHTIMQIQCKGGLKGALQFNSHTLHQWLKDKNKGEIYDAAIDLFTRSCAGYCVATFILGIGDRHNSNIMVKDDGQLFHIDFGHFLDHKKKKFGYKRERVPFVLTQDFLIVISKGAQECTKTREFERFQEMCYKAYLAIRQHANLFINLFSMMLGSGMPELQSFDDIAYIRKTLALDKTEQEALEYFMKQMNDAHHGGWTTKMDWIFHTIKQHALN
Target sequence in this assay (Q63787 whole entry partner): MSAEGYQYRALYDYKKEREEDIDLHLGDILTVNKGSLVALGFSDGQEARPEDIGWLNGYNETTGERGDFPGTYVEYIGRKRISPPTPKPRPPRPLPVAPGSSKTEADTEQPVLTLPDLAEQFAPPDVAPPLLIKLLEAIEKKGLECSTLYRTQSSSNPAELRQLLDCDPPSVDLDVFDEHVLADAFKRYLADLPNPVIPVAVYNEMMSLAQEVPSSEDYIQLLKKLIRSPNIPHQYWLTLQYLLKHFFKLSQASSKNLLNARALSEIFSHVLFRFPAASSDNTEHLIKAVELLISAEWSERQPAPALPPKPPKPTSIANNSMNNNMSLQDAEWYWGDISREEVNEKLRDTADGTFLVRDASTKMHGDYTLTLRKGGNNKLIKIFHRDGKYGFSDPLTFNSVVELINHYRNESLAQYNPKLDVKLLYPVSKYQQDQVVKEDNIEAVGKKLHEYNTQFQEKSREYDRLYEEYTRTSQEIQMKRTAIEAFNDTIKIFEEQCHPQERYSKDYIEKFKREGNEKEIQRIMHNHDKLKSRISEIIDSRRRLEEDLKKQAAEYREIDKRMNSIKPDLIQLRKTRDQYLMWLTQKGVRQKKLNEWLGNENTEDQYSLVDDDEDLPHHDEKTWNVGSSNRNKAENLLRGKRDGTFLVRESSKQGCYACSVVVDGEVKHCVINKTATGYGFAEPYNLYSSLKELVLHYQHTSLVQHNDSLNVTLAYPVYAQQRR
Source text: Cellular Assays for PI 3-Kinase Alpha (H1), Beta (I1) and Delta (J1): Surefire Format
AlphaScreen (Amplified Luminescent Proximity Homogeneous Assay, ALPHA, Perkin Elmer) is a non-radioactive bead-based proximity assay technology to study biomolecular interactions in a homogenous microtiter plate format. The brand name SureFire denotes AlphaScreen assays that are adapted to quantify the phosphorylation of endogenous cellular proteins in cell lysates, by using matched antibody pairs, which consist of an anti-phospho-kinase and an anti-kinase antibody. The assay allows characterization of kinase signaling in cells as well as measurement of kinase inhibitor effects.
Using Rat-1 cells stably expressing myr-HA-tagged versions of the human PI3Kdelta, PI3Kalpha, or PI3Kbeta p110 catalytic subunit isoforms, the assay was developed as a two-plate protocol in a 384-well format.
For compound testing, the cells were seeded at a density of 4000 (Rat-1_PI3Kdelta), 7500 (Rat-1_PI3Kalpha), or 6200 (Rat-1_PI3Kbeta) cells in 20 μl complete growth medium into cell culture treated 384-well plates and were grown at 37° C./5% CO2/90% humidity for 24 h. Shortly before compound transfer, the complete medium was removed, 30 μl assay buffer (DMEM high glucose, 1×MEM NEAA, 10 mM HEPES, 2 mM L-glutamine, 0.1% (w/v) BSA) was added and 10 μl of the compound predilutions were transferred to the cells.

PI 3-kinase gamma [5] = target: T3, PI 3-kinase gamma (Homo sapiens, UniProt P48736); test: Cellular U937 AKT assay K1 (MSD); assay type: cell-based; conditions: U937 cells, K1 format; read-out: Assay K1 PI3Kγ IC50
T3 sequence (P48736 whole entry): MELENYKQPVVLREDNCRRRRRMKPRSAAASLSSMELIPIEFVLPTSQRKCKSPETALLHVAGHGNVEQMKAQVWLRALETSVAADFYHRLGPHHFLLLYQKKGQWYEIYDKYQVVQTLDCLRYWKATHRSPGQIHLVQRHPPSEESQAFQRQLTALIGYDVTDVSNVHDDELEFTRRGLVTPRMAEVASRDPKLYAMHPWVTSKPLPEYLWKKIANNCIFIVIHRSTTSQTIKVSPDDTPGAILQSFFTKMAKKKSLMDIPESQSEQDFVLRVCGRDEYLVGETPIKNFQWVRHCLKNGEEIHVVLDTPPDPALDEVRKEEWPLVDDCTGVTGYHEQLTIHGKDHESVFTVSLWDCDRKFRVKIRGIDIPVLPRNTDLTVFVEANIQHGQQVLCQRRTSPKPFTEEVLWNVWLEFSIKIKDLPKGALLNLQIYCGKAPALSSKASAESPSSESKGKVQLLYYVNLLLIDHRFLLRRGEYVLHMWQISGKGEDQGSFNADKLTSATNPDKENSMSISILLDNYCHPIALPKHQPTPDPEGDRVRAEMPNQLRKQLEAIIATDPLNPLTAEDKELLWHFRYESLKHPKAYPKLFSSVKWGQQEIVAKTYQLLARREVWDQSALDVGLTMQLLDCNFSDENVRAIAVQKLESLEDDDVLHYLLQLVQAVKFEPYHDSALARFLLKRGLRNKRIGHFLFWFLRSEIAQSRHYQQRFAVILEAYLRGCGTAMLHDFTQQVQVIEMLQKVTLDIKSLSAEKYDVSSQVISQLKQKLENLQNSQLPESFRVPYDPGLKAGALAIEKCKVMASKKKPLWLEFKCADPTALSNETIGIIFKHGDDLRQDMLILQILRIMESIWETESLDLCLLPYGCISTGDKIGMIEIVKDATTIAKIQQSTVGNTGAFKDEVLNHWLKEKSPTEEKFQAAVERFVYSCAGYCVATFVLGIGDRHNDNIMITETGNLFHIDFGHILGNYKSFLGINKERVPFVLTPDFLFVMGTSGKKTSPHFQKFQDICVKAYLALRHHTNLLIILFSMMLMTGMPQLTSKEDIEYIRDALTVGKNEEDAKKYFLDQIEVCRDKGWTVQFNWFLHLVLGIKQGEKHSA

[6] = Microsomal clearance assay (M); conditions: intrinsic clearance in rat liver microsomes
Procedure: The experiments were performed in 96-well glass plates at 37° C. on an automated Tecan EVO platform. Test compounds at a concentration of 10 mM in pure DMSO were diluted 1:1000 in water to 10 μM. […] Reactions were initiated by the addition of 150 μL of a cofactor solution containing 2 mM NADPH.

PI 3-kinase delta [7] = target: T4, PI 3-kinase delta (Homo sapiens, UniProt O00329); test: Cellular assay J1, p-Akt (S473) in Rat-1 cells, Surefire format; assay type: cell-based; conditions: non-asterisked data: version J1 (Surefire format), Rat-1 cells; read-out: Assay J PI3Kδ IC50
PI 3-kinase alpha [8] = target: T2, PI 3-kinase alpha; test: Kinase Glo Luminescent Kinase Assay (Kglo), assay A; assay type: biochemical; conditions: read-out: Assay A PI3Kα IC50
Target sequence in this assay (P42336 whole entry): as the sequence (P42336 whole entry) above

PI 3-kinase gamma [9] = target: T3, PI 3-kinase gamma; test: TR-FRET Adapta assay, assay E; assay type: biochemical; conditions: read-out: Assay E PI3Kγ IC50
Vps34 = Vps34 (Homo sapiens, UniProt Q8NEB9); test: Kinase Glo Luminescent Kinase Assay (Kglo), assay C; assay type: biochemical; conditions: read-out: Assay C VPS34 IC50
Vps34, sequence (Q8NEB9 whole entry, species assumed): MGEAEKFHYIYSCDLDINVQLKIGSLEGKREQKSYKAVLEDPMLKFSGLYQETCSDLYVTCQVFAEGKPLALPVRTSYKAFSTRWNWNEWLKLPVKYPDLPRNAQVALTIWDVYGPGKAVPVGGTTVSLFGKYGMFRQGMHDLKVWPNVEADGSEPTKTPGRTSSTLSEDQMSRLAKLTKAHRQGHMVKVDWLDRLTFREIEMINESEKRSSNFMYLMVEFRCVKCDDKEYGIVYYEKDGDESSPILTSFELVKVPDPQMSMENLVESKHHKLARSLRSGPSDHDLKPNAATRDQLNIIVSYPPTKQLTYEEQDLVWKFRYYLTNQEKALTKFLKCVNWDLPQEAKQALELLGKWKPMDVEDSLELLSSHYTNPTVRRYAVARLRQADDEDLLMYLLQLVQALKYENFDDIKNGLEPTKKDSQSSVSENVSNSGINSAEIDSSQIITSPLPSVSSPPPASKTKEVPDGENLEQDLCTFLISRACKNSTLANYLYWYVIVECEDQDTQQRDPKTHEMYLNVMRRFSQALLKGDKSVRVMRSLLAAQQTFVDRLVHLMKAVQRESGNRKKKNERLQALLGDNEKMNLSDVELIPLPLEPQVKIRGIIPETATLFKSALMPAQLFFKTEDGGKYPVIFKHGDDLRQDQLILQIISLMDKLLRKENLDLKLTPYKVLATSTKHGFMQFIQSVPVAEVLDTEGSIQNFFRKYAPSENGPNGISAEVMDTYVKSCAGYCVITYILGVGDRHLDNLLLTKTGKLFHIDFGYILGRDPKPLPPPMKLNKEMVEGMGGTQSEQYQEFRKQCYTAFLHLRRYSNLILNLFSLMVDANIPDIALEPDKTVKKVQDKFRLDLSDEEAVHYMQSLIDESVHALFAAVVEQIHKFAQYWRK

PI 3-kinase delta [10] = target: T4, PI 3-kinase delta; test: TR-FRET Adapta assay, assay F; conditions: read-out: Assay F PI3Kδ IC50

IC50 (mTOR) [nM] | IC50 [1] [nM] | IC50 (PI 3-kinase beta [2]) [nM] | IC50 (PI 4-kinase beta) [nM] | IC50 (PI 3-kinase beta [3]) [nM] | IC50 (PI 3-kinase alpha [4]) [nM] | IC50 (PI 3-kinase gamma [5]) [nM] | Assay M RLM CI(int) [6] [µL/min/mg] | IC50 (PI 3-kinase delta [7]) [nM] | IC50 (PI 3-kinase alpha [8]) [nM] | IC50 (PI 3-kinase gamma [9]) [nM] | IC50 (Vps34) [nM] | IC50 (PI 3-kinase delta [10]) [nM] | SMILES
> 9100 | 4830 | > 10000 | 8540 | > 9100 | 8800 | 260 | 31 | 3550 | 2700 | 4 | > 9100 | 860 | CCc1nnc(-c2nc(-c3cc(S(=O)(=O)N[C@H]4CC[C@H](O)CC4)ccc3C)cnc2N)o1 [Example 138, Trans-3-(5-Amino-6-(5-ethyl-1,3,4-oxadiazol-2-yl)pyrazin-2-yl)-N-((1r,4r)-4-hydroxycyclohexyl)-4-methylbenzenesulfonamide]
8640 | 1110 | 3530 | 5640 | 2350 | 2980 | 117 | 38 | 2210 | 320 | 39 | 8990 | 480 | Cc1cc(F)c(S(=O)(=O)NCCC(C)(C)O)cc1-c1cnc(N)c(-c2cnn(C)c2)n1 [Example 115, 5-(5-Amino-6-(1-methyl-1H-pyrazol-4-yl)pyrazin-2-yl)-2-fluoro-N-(3-hydroxy-3-methylbutyl)-4-methylbenzenesulfonamide]
4810 | 2010 | 7410 | > 9100 | 770 | 1690 | 140 | 141 | 2030 | 190 | 17 | > 9100 | 110 | Cc1ccc(S(=O)(=O)NC2CCC(F)(F)CC2)cc1-c1cnc(N)c(-c2cnn(C)c2)n1 [Example 54, 3-(5-Amino-6-(1-methyl-1H-pyrazol-4-yl)pyrazin-2-yl)-N-(4,4-difluorocyclohexyl)-4-methylbenzenesulfonamide]
> 9100 | 723 | 6030 | > 9100 | 2670 | 3110 | 293 | 41 | 2640 | 580 | 34 | > 9100 | 390 | Cc1ccc(S(=O)(=O)NC[C@H]2C[C@@H](O)C2)cc1-c1cnc(N)c(-n2cncn2)n1 [Example 72, 3-(5-Amino-6-(1H-1,2,4-triazol-1-yl)pyrazin-2-yl)-N-(((1s,3s)-3-hydroxycyclobutyl)methyl)-4-methylbenzenesulfonamide]
6510 | 675 | 4460 | 3700 | 3240 | 2550 | 38 | 27 | 910 | 510 | 26 | > 9100 | 300 | Cc1cc(-c2nc(-c3cc(S(=O)(=O)N[C@H]4CC[C@H](O)CC4)ccc3C)cnc2N)on1 [Example 4, Trans-3-[5-Amino-6-(3-methyl-isoxazol-5-yl)-pyrazin-2-yl]-N-(4-hydroxy-cyclohexyl)-4-methyl-benzenesulfonamide]
460 | 898 | 1590 | 4720 | 470 | 630 | 102 | 264 | 530 | 30 | 11 | 1460 | 130 | Cc1ncc(-c2nc(-c3cc(S(=O)(=O)N4CCNC(C(F)(F)F)C4)ccc3C)cnc2N)s1 (centres unmarked) [Example 118, 5-(2-Methyl-5-(3-(trifluoromethyl)piperazin-1-ylsulfonyl)phenyl)-3-(2-methylthiazol-5-yl)pyrazin-2-amine]
8820 | 817 | 6380 | > 9100 | 7160 | 1110 | 51 | 82 | 840 | 240 | 16 | > 9100 | 90 | CCCc1noc(-c2nc(-c3cc(S(=O)(=O)N[C@H]4CC[C@H](O)CC4)ccc3C)cnc2N)n1 [Example 140, Trans-3-[5-Amino-6-(3-propyl-[1,2,4]oxadiazol-5-yl)-pyrazin-2-yl]-N-(4-hydroxy-cyclohexyl)-4-methyl-benzene sulfonamide]
5890 | 157 | 6910 | 3580 | 2620 | 2570 | 57 | 78 | 3520 | 140 | 10 | > 9100 | 130 | Cc1ccc(S(=O)(=O)N[C@H]2CC[C@H](O)CC2)cc1-c1cnc(N)c(-c2ccncc2)n1 [Example 11, Trans-3-(5-Amino-6-(pyridin-4-yl)pyrazin-2-yl)-N-(4-hydroxycyclohexyl)-4-methylbenzenesulfonamide]
4780 | 726 | 9240 | 5750 | 4970 | 470 | 128 | 87 | 910 | 170 | 35 | > 9100 | 120 | Cc1ccc(S(=O)(=O)NCCC(C)(C)O)cc1-c1cnc(N)c(-c2ccncc2)n1 [Example 119.27]
5600 | 669 | > 10000 | 3700 | 1900 | > 10000 | 418 | 25 | > 10000 | 630 | 25 | > 10000 | 990 | Cc1ccc(S(=O)(=O)NCC2(CO)COC2)cc1-c1cnc(N)c(-n2cncn2)n1 [Example 35, 3-(5-Amino-6-[1,2,4]triazol-1-yl-pyrazin-2-yl)-N-(3-hydroxymethyl-oxetan-3-ylmethyl)-4-methyl-benzenesulfonamide]
5110 | 735 | 4520 | 7010 | 2830 | 1630 | 65 | 62 | 1200 | 150 | 12 | > 9100 | 180 | Cc1ccc(S(=O)(=O)NCCC(C)(C)O)cc1-c1cnc(N)c(-c2cnn(CC(F)(F)F)c2)n1 [Example 130, 3-(5-Amino-6-(1-(2,2,2-trifluoroethyl)-1H-pyrazol-4-yl)pyrazin-2-yl)-N-(3-hydroxy-3-methylbutyl)-4-methylbenzenesulfonamide]
> 9100 | 601 | > 10000 | 1000 | 690 | 5510 | 730 | 50 | 3590 | 160 | 14 | > 9100 | 260 | Cc1ccc(S(=O)(=O)NCCC(C)(C)O)cc1-c1cnc(N)c(-c2cn[nH]c2)n1 [Example 119.33]
> 9100 | 515 | 3250 | 2740 | 1880 | 2250 | 28 | 29 | 850 | 390 | 13 | > 9100 | 150 | Cc1ccc(S(=O)(=O)N[C@H]2CC[C@H](O)CC2)cc1-c1cnc(N)c(-n2cccn2)n1 [Example 103, 3-(5-Amino-6-(1H-pyrazol-1-yl)pyrazin-2-yl)-N-((1r,4r)-4-hydroxycyclohexyl)-4-methylbenzenesulfonamide]
6990 | 407 | 1650 | 7890 | 5210 | 3810 | 98 | 116 | 480 | 300 | 24 | > 9100 | 50 | Cc1ccc(S(=O)(=O)NCCC(C)(C)O)cc1-c1cnc(N)c(-c2csc(CN3CCOCC3)c2)n1 [Example 30, 3-[5-Amino-6-(5-morpholin-4-ylmethyl-thiophen-3-yl)-pyrazin-2-yl]-N-(3-hydroxy-3-methyl-butyl)-4-methyl-benzenesulfonamide]
